Measured values published in publication PMC11149917, “Translational and Therapeutic Evaluation of RAS-GTP Inhibition by RMC-6236 in RAS-Driven Cancers” (Cancer Discovery, 2024).

How the values were obtained:
Plasma protein binding = type: in vitro ADME; settings: human, humans
[1] = system: eCT26 (Kras^G12C/G12C) tumors in BALB/c mice; test: Syngeneic model study; type: in vivo, mouse; settings: monotherapy 25 mg/kg, 14 days
From the text: LU99 cells (JCRB0080) were stably modified with lentivirus-based pHBLV-CMV-MCS-EF1-fLuc-T2A-puro vector to generate luciferase-expressing LU99-Luc cells. NCI-H1373 cells (ATCC CRL-5866) were stably modified with lentivirus-based pHBLV-CMV-MCS-EF1-fluc-T2A-PURO vector to generate luciferase-expressing NCI-H1373-Luc cells. The eCT26 Kras^G12C^/G12CAbcb1^−^/^− (clone I20) and eCT26 Kras^G12D^/G12DAbcb1^−^/^− (clone I12) cell lines were engineered from the murine CT26 homozygous Kras^G12D tumor cell line (ATCC CRL-2638). All Kras^G12D alleles were replaced with Kras^G12C using CRISPR technology at Synthego. Additionally, the P-glycoprotein drug transporter, Abcb1a and Abcb1b, were knocked out using CRISPR guide sequences […] and […], respectively. The homozygous G12C mutation and the Abcb1 knockout were confirmed by Sanger sequencing in the clone selected and were used for in vivo experiments.
Female BALB/c immunocompetent mice and female NOD-SCID/IL2Rg(null; NSG) immune-deficient mice (6–8 weeks old) were purchased from the Jackson Laboratory and were acclimated at Revolution Medicines for 7 days before cell implantation. […] Treatments were initiated at the time of randomization when the average tumor volume reached 100 to 120 mm^3. The animals were assigned into groups using Studylog randomization software, performing stratified randomization based on their tumor volumes. […]

[2] = system: CC3 in Capan-2 xenograft tumors; test: IHC whole-slide quantification; type: in vivo, mouse; settings: control 3.0
Description: All tissues were fixed for up to 24 hours using 10% neutral buffered formalin and then moved to 70% ethanol for long-term storage. FFPE sections (4 µm) were stained on the Biocare intelliPATH automated staining platform using the manufacturer’s recommended settings.
All tissue sections were incubated with Biocare Peroxidase Blocker (Biocare, cat no. PX968) and Background Punisher (Biocare, cat no. BP974M) to block nonspecific background. MACH4 HRP-polymer Detection System (Biocare, cat no. MRH534) was used to detect rabbit primary antibodies.
DAB-stained slides were scanned and digitized with a Huron TissueScope LE120 whole-slide scanner at 200× magnification.
The EpCAM staining was used to identify epithelial cells. First, the area to be analyzed was delineated, excluding necrotic regions. The random forest tumor classifier from the HALO Image Analysis package was used to identify the tumor compartment. Three classes were created: glass, tumor (EpCAM-positive), and stroma. The tumor class mark was then copied onto the serial sections stained with various markers to perform the image analysis only on the tumor compartment.

[3] = system: DUSP6 mRNA in NCI-H2122 xenograft tumors; test: In vivo PD by DUSP6 qPCR; design: species or system mouse
Description: Tumor-bearing animals were randomized and assigned into groups (n = 1–10/group). The vehicle at 10 mL/kg or RMC-6236 at indicated doses was administered via oral gavage daily, and animals were treated for 28 days, or up to 90 days if PFS was being assessed. […] For single-dose PKPD study, mice were randomized and assigned into groups (n = 3/dose/time point). A single dose of RMC-6236 was administered orally at either 3, 10, or 25 mg/kg. Blood and tissues, including the tumor, brain, colon, ear skin, and muscle, were harvested at indicated time points. Whole blood was collected in K2EDTA Microtainer tubes, incubated for 5 minutes, and snap-frozen in liquid nitrogen. The tissue was either fixed in 10% formalin or snap-frozen in liquid nitrogen for further analysis.
RNA was extracted from at least 20 mg of tissue using an RNeasy Mini Kit (Qiagen, 74104) and a High-Throughput Tissue grinder following the manufacturer's protocol. Reverse transcription was carried out using High-Capacity cDNA Reverse Transcription Kit (ABI, 4368814) according to the manufacturer's protocol. The cDNA product was used for qPCR analysis using TaqMan Gene-Expression Master Mix (ABI, 4369016). TaqMan primer probes specific to DUSP6 (human—Hs00737962_m1, murine—Mm00518185_m1, FAM-MGB) and 18S (RNA18S1; human—Hs99999901_s1, murine—Mm03928990_g1, FAM-MGB, used as an internal control gene) were used to detect the levels from each sample in duplicates using a 10 µL final reaction volume in a 384-well clear optical reaction plate. For qPCR, Ct values of DUSP6 and 18S were obtained for analysis. DUSP6 Ct value was normalized to 18S, and then the mean relative mRNA expression levels of each group were normalized to the vehicle control group. Values were plotted as relative change in mRNA expression compared with vehicle. Means ± SEM were shown.

In the case of `CCn1c(-c2cc(N3CCN(C)CC3)cnc2[C@H](C)OC)c2c3cc(ccc31)-c1csc(n1)C[C@H](NC(=O)[C@H]1C[C@@H]1C)C(=O)N1CCC[C@H](N1)C(=O)OCC(C)(C)C2` [RMC-6236], the fraction unbound (Plasma protein binding) is reported as 0.023, the “animals maintaining mCRs following treatment withdrawal” value [1] is reported as 60% and the “CC3 (% positive cells)” value ([2]; Capan-2 (25 mg/kg x 7d), 8h) is reported as 7.0%. For the same compound, the “CC3 (% positive cells)” value ([2]; Capan-2 (25 mg/kg x 7d), 24h) was 5.0%, the “CC3 (% positive cells)” value ([2]; Capan-2 (25 mg/kg x 7d), 48hr) was 3.7% and the “CC3 (% positive cells)” value ([2]; Capan-2 (25 mg/kg), 8h) was 4.2%. For the same compound, the “CC3 (% positive cells)” value ([2]; Capan-2 (25 mg/kg), 24h) was 5.7%, the “CC3 (% positive cells)” value ([2]; Capan-2 (25 mg/kg), 48hr) was 6.7% and the “DUSP6 mRNA(% normalized to control)” value ([3]; NCI-H2122 (25 mg/kg x 7d), 1h) was 0.8%. For the same compound, the “DUSP6 mRNA(% normalized to control)” value ([3]; NCI-H2122 (25 mg/kg x 7d), 8h) was 0.337%, the “DUSP6 mRNA(% normalized to control)” value ([3]; NCI-H2122 (25 mg/kg x 7d), 24h) was 0.8% and the “DUSP6 mRNA(% normalized to control)” value ([3]; NCI-H2122 (25 mg/kg x 7d), 48h) was 6.3%. The “DUSP6 mRNA(% normalized to control)” value ([3]; NCI-H2122 (25 mg/kg), 1h) was 20.6%, the “DUSP6 mRNA(% normalized to control)” value ([3]; NCI-H2122 (25 mg/kg), 8h) was 0.187% and the “DUSP6 mRNA(% normalized to control)” value ([3]; NCI-H2122 (25 mg/kg), 24h) was 3.4%. The “DUSP6 mRNA(% normalized to control)” value ([3]; NCI-H2122 (25 mg/kg), 48h) was 10.6%.
